# Square brackets hold non-standard residues; d marks the D form. Peptide text beside a SMILES is read from it. * marks the point of attachment. Lys(5-FITC)NH2 = NC(=O)[C@H](CCCCNC(=S)Nc1ccc2c(c1)C(=O)OC21c2ccc(O)cc2Oc2cc(O)ccc21)N*; FITC = O=C1OC2(c3ccc(O)cc3Oc3cc(O)ccc32)c2ccc(NC(=S)*)cc21; Phe(4-F) = N[C@@H](Cc1ccc(F)cc1)C(=O)O; d2Nal = N[C@H](Cc1ccc2ccccc2c1)C(=O)O; Benzoyl(3-Br) = O=C(c1cccc(Br)c1)*; Isonicotinoyl = O=C(c1ccncc1)*; Phg = N[C@H](C(=O)O)c1ccccc1; Tle = CC(C)(C)[C@H](N)C(=O)O; X2 = O=C(C=Cc1ccc(Cl)cc1)*; X5 = O=C(c1cc(F)cc(Br)c1)*; X4 = O=C(c1ccc(Cl)nc1)*; Dap = NC[C@H](N)C(=O)O; Bn = c1ccc(C*)cc1
# Molecular target: T1, K-Ras(G12V) (Homo sapiens, UniProt P01116, G12V)
# T1 construct: The G12V mutant K-Ras (amino acids 1-185) was recombinantly fused; GST (N, cleaved yes); made in house; host or cells: Escherichia coli BL21
# T1 sequence (P01116 1-185 isoform P01116-2 G12V): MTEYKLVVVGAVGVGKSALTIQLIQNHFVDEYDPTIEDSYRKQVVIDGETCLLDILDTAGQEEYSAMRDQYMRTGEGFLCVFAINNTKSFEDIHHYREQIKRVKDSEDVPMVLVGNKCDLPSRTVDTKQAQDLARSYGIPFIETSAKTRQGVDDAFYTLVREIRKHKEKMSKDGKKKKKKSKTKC
# Assay: Fluorescence anisotropy (FA) binding of FITC-labeled cyclic peptides to K-Ras
# Settings: Table 1; resynthesized FITC-labeled peptides, FA, K-Ras; read-out: KD
# Experimental: The 13 hits were resynthesized, labeled with fluorescein isothiocyanate (FITC), purified by HPLC, and tested for binding to K-Ras by fluorescence anisotropy (FA).
# For cyclic peptides derived from single library beads (library screening), K-Ras protein (non-GST fusion, 0-20 μM) was incubated with the TMR-labeled peptide (50 or 100 nM) in 20 μL of the blocking buffer for 2.5 h at 24° C. The FA values were measured on a Molecular Devices Spectramax M5 spectrofluorimeter, with excitation and emission wavelengths at 545 and 585 nm, respectively. Equilibrium dissociation constants (KD) were determined by plotting the FA values as a function of K-Ras concentration and fitting the data to the equation
# [formula] where Y is the measured anisotropy at a given K-Ras concentration x; L is the peptide concentration; Qb/Qf is the correction fact for dye-protein interaction; Amax is the maximum anisotropy at saturating K-Ras concentration; and Amin is the minimum anisotropy. FA analyses with resynthesized FITC-labeled peptides were similarly carried out, except that the excitation and emission wavelengths were at 494 and 520 nm, respectively.
row,Compound,Kd
1,"C[C@@H](O)[C@@H]1NC(=O)[C@H](Cc2ccc(O)cc2)NC(=O)[C@@H](CC(N)=O)NC(=O)[C@H](Cc2ccc(F)cc2)NC(=O)[C@H](CCCNC(=N)N)NC(=O)[C@@H](Cc2ccc3ccccc3c2)NC(=O)[C@H](CCCNC(=N)N)NC(=O)[C@H](CCCNC(=N)N)NC(=O)[C@H](CCC(=O)N[C@@H](CCCCNC(=S)Nc2ccc3c(c2)C(=O)OC32c3ccc(O)cc3Oc3cc(O)ccc32)C(N)=O)NC(=O)[C@@H](CC(N)=O)NC1=O [Cyclorasin 2A, (Arg-Arg-nal-Arg-Fpa-asn-Tyr-Thr-asn-Gln)] (cyclo(RR[d2Nal]R[Phe(4-F)][dN]YT[dN]E(Lys(5-FITC)NH2)))",> 10000 nM
2,"N=C(N)NCCC[C@@H]1NC(=O)[C@H](CCC(=O)N[C@@H](CCCCNC(=S)Nc2ccc3c(c2)C(=O)OC32c3ccc(O)cc3Oc3cc(O)ccc32)C(N)=O)NC(=O)[C@@H](Cc2ccccc2)NC(=O)[C@@H](CO)NC(=O)[C@H](Cc2ccc(O)cc2)NC(=O)[C@H](c2ccccc2)NC(=O)[C@H](Cc2ccc(F)cc2)NC(=O)[C@H](CCCNC(=N)N)NC(=O)[C@@H](Cc2ccc3ccccc3c2)NC(=O)[C@H](CCCNC(=N)N)NC1=O [Cyclorasin 8A, (Arg-Arg-nal-Arg-Fpa-Phg-Tyr-ser-phe-Gln)] (cyclo(RR[d2Nal]R[Phe(4-F)][Phg]Y[dS][dF]E(Lys(5-FITC)NH2)))",> 10000 nM

# Same assay, conditions: Table 2; FITC-labeled peptide; read-out: Binding affinity KD
row,Compound,Kd
1,"C[C@H]1NC(=O)[C@H](C(C)(C)C)NC(=O)[C@H](Cc2c[nH]c3ccccc23)NC(=O)[C@H](CCC(N)=O)NC(=O)[C@@H](CCCCNC(=O)C=Cc2ccc(Cl)cc2)NC(=O)[C@H](Cc2ccc(F)cc2)NC(=O)[C@H](CCCNC(=N)N)NC(=O)[C@@H](Cc2ccc3ccccc3c2)NC(=O)[C@H](CCCCNC(=S)Nc2ccc3c(c2)C(=O)OC32c3ccc(O)cc3Oc3cc(O)ccc32)NC(=O)[C@H](CCCNC(=N)N)NC(=O)[C@H](CCCNC(=N)N)NC1=O [Cyclorasin 9A34, (Trp-Tle-ala-Arg-Arg-Lys(FITC)-nal-Arg-Fpa-lys(4-chlorocinnamoyl)-Gln)] (cyclo(K(FITC)[d2Nal]R[Phe(4-F)][dK](X2)QW[Tle][dA]RR))",> 20000 nM
2,"C[C@H]1NC(=O)[C@H](C(C)(C)C)NC(=O)[C@H](CNC(=O)c2cccc(Br)c2)NC(=O)[C@H](CCC(N)=O)NC(=O)[C@@H](CCCCN)NC(=O)[C@H](Cc2ccc(F)cc2)NC(=O)[C@H](CCCNC(=N)N)NC(=O)[C@@H](Cc2ccc3ccccc3c2)NC(=O)[C@H](CCCCNC(=S)Nc2ccc3c(c2)C(=O)OC32c3ccc(O)cc3Oc3cc(O)ccc32)NC(=O)[C@H](CCCNC(=N)N)NC(=O)[C@H](CCCNC(=N)N)NC1=O [Cyclorasin 9A30, (Dap(3-bromobenzoyl)-Tle-ala-Arg-Arg-Lys(FITC)-nal-Arg-Fpa-lys-Gln)] (cyclo([Dap](Benzoyl(3-Br))[Tle][dA]RRK(FITC)[d2Nal]R[Phe(4-F)][dK]Q))",640 ± 70 nM
3,"C[C@H]1NC(=O)[C@H](C(C)(C)C)NC(=O)[C@H](CNC(=O)c2ccc(Cl)nc2)NC(=O)[C@H](CCC(N)=O)NC(=O)[C@@H](CCCCN)NC(=O)[C@H](Cc2ccc(F)cc2)NC(=O)[C@H](CCCNC(=N)N)NC(=O)[C@@H](Cc2ccc3ccccc3c2)NC(=O)[C@H](CCCCNC(=S)Nc2ccc3c(c2)C(=O)OC32c3ccc(O)cc3Oc3cc(O)ccc32)NC(=O)[C@H](CCCNC(=N)N)NC(=O)[C@H](CCCNC(=N)N)NC1=O [Cyclorasin 9A27, (Dap(6-chloronicotinoyl)-Tle-ala-Arg-Arg-Lys(FITC)-nal-Arg-Fpa-lys-Gln)] (cyclo([Dap](X4)[Tle][dA]RRK(FITC)[d2Nal]R[Phe(4-F)][dK]Q))",1000 ± 100 nM
4,"C[C@H]1NC(=O)[C@H](C(C)(C)C)NC(=O)[C@H](CNC(=O)c2cc(F)cc(Br)c2)NC(=O)[C@H](CCC(N)=O)NC(=O)[C@@H](CCCCN)NC(=O)[C@H](Cc2ccc(F)cc2)NC(=O)[C@H](CCCNC(=N)N)NC(=O)[C@@H](Cc2ccc3ccccc3c2)NC(=O)[C@H](CCCCNC(=S)Nc2ccc3c(c2)C(=O)OC32c3ccc(O)cc3Oc3cc(O)ccc32)NC(=O)[C@H](CCCNC(=N)N)NC(=O)[C@H](CCCNC(=N)N)NC1=O [Cyclorasin 9A25, (Dap(3-bromo-5-fluorobenzoyl)-Tle-ala-Arg-Arg-Lys(FITC)-nal-Arg-Fpa-lys-Gln)] (cyclo([Dap](X5)[Tle][dA]RRK(FITC)[d2Nal]R[Phe(4-F)][dK]Q))",470 ± 100 nM
5,"C[C@H]1NC(=O)[C@H](C(C)(C)C)NC(=O)[C@H](CNC(=O)C=Cc2ccc(Cl)cc2)NC(=O)[C@H](CCC(N)=O)NC(=O)[C@@H](CCCCN)NC(=O)[C@H](Cc2ccc(F)cc2)NC(=O)[C@H](CCCNC(=N)N)NC(=O)[C@@H](Cc2ccc3ccccc3c2)NC(=O)[C@H](CCCCNC(=S)Nc2ccc3c(c2)C(=O)OC32c3ccc(O)cc3Oc3cc(O)ccc32)NC(=O)[C@H](CCCNC(=N)N)NC(=O)[C@H](CCCNC(=N)N)NC1=O [Cyclorasin 9A28, (Dap(4-chlorocinnamoyl)-Tle-ala-Arg-Arg-Lys(FITC)-nal-Arg-Fpa-lys-Gln)] (cyclo([Dap](X2)[Tle][dA]RRK(FITC)[d2Nal]R[Phe(4-F)][dK]Q))",160 ± 20 nM
6,"C[C@H]1NC(=O)[C@H](C(C)(C)C)NC(=O)[C@H](Cc2c[nH]c3ccccc23)NC(=O)[C@H](CCC(N)=O)NC(=O)[C@@H](CCCCN)NC(=O)[C@H](Cc2ccc(F)cc2)NC(=O)[C@H](CCCNC(=N)N)NC(=O)[C@@H](Cc2ccc3ccccc3c2)NC(=O)[C@H](CCCCNC(=S)Nc2ccc3c(c2)C(=O)OC32c3ccc(O)cc3Oc3cc(O)ccc32)NC(=O)[C@H](CCCNC(=N)N)NC(=O)[C@H](CCCNC(=N)N)NC1=O [Cyclorasin 9A31, (Trp-Tle-ala-Arg-Arg-Lys(FITC)-nal-Arg-Fpa-lys-Gln)] (cyclo(K(FITC)[d2Nal]R[Phe(4-F)][dK]QW[Tle][dA]RR))",110 ± 10 nM
7,"C[C@H]1NC(=O)[C@H](C(C)(C)C)NC(=O)[C@H](Cc2c[nH]c3ccccc23)NC(=O)[C@H](CCC(N)=O)NC(=O)[C@@H](CCCCNC(=O)c2cccc(Br)c2)NC(=O)[C@H](Cc2ccc(F)cc2)NC(=O)[C@H](CCCNC(=N)N)NC(=O)[C@@H](Cc2ccc3ccccc3c2)NC(=O)[C@H](CCCCNC(=S)Nc2ccc3c(c2)C(=O)OC32c3ccc(O)cc3Oc3cc(O)ccc32)NC(=O)[C@H](CCCNC(=N)N)NC(=O)[C@H](CCCNC(=N)N)NC1=O [Cyclorasin 9A36, (Trp-Tle-ala-Arg-Arg-Lys(FITC)-nal-Arg-Fpa-lys(3-bromobenzoyl)-Gln)] (cyclo(K(FITC)[d2Nal]R[Phe(4-F)][dK](Benzoyl(3-Br))QW[Tle][dA]RR))",> 20000 nM
8,"C[C@H]1NC(=O)[C@H](C(C)(C)C)NC(=O)[C@H](Cc2c[nH]c3ccccc23)NC(=O)[C@H](CCC(N)=O)NC(=O)[C@@H](CCCCNC(=O)c2cc(F)cc(Br)c2)NC(=O)[C@H](Cc2ccc(F)cc2)NC(=O)[C@H](CCCNC(=N)N)NC(=O)[C@@H](Cc2ccc3ccccc3c2)NC(=O)[C@H](CCCCNC(=S)Nc2ccc3c(c2)C(=O)OC32c3ccc(O)cc3Oc3cc(O)ccc32)NC(=O)[C@H](CCCNC(=N)N)NC(=O)[C@H](CCCNC(=N)N)NC1=O [Cyclorasin 9A32, (Trp-Tle-ala-Arg-Arg-Lys(FITC)-nal-Arg-Fpa-lys(3-bromo-5-fluorobenzoyl)-Gln)] (cyclo(K(FITC)[d2Nal]R[Phe(4-F)][dK](X5)QW[Tle][dA]RR))",> 20000 nM
9,"C[C@H]1NC(=O)[C@H](C(C)(C)C)NC(=O)[C@H](CNC(=O)c2ccncc2)NC(=O)[C@H](CCC(N)=O)NC(=O)[C@@H](CCCCN)NC(=O)[C@H](Cc2ccc(F)cc2)NC(=O)[C@H](CCCNC(=N)N)NC(=O)[C@@H](Cc2ccc3ccccc3c2)NC(=O)[C@H](CCCCNC(=S)Nc2ccc3c(c2)C(=O)OC32c3ccc(O)cc3Oc3cc(O)ccc32)NC(=O)[C@H](CCCNC(=N)N)NC(=O)[C@H](CCCNC(=N)N)NC1=O [Cyclorasin 9A29, (Dap(isonicotinoyl)-Tle-ala-Arg-Arg-Lys(FITC)-nal-Arg-Fpa-lys-Gln)] (cyclo([Dap](Isonicotinoyl)[Tle][dA]RRK(FITC)[d2Nal]R[Phe(4-F)][dK]Q))",1200 ± 100 nM
10,"C[C@H]1NC(=O)[C@H](C(C)(C)C)NC(=O)[C@H](Cc2c[nH]c3ccccc23)NC(=O)[C@H](CCC(N)=O)NC(=O)[C@@H](CCCCNC(=O)c2ccc(Cl)nc2)NC(=O)[C@H](Cc2ccc(F)cc2)NC(=O)[C@H](CCCNC(=N)N)NC(=O)[C@@H](Cc2ccc3ccccc3c2)NC(=O)[C@H](CCCCNC(=S)Nc2ccc3c(c2)C(=O)OC32c3ccc(O)cc3Oc3cc(O)ccc32)NC(=O)[C@H](CCCNC(=N)N)NC(=O)[C@H](CCCNC(=N)N)NC1=O [Cyclorasin 9A33, (Trp-Tle-ala-Arg-Arg-Lys(FITC)-nal-Arg-Fpa-lys(6-chloronicotinoyl)-Gln)] (cyclo(K(FITC)[d2Nal]R[Phe(4-F)][dK](X4)QW[Tle][dA]RR))",> 20000 nM
11,"C[C@H]1NC(=O)[C@H](C(C)(C)C)NC(=O)[C@H]([C@@H](C)OCc2ccccc2)NC(=O)[C@H](CCC(N)=O)NC(=O)[C@@H](CCCCN)NC(=O)[C@H](Cc2ccc(F)cc2)NC(=O)[C@H](CCCNC(=N)N)NC(=O)[C@@H](Cc2ccc3ccccc3c2)NC(=O)[C@H](CCCCNC(=S)Nc2ccc3c(c2)C(=O)OC32c3ccc(O)cc3Oc3cc(O)ccc32)NC(=O)[C@H](CCCNC(=N)N)NC(=O)[C@H](CCCNC(=N)N)NC1=O [Cyclorasin 9A26, (Thr(Bzl)-Tle-ala-Arg-Arg-Lys(FITC)-nal-Arg-Fpa-lys-Gln)] (cyclo(K(FITC)[d2Nal]R[Phe(4-F)][dK]QT(Bn)[Tle][dA]RR))",710 ± 70 nM
12,"C[C@H]1NC(=O)[C@H](C(C)(C)C)NC(=O)[C@H](Cc2c[nH]c3ccccc23)NC(=O)[C@H](CCC(N)=O)NC(=O)[C@@H](CCCCNC(=O)c2ccncc2)NC(=O)[C@H](Cc2ccc(F)cc2)NC(=O)[C@H](CCCNC(=N)N)NC(=O)[C@@H](Cc2ccc3ccccc3c2)NC(=O)[C@H](CCCCNC(=S)Nc2ccc3c(c2)C(=O)OC32c3ccc(O)cc3Oc3cc(O)ccc32)NC(=O)[C@H](CCCNC(=N)N)NC(=O)[C@H](CCCNC(=N)N)NC1=O [Cyclorasin 9A35, (Trp-Tle-ala-Arg-Arg-Lys(FITC)-nal-Arg-Fpa-lys(isonicotinoyl)-Gln)] (cyclo(W[Tle][dA]RRK(FITC)[d2Nal]R[Phe(4-F)][dK](Isonicotinoyl)Q))",> 20000 nM
